Source: patent US9085587B2, “Inhibitors of hepatitis C virus” (priority 2010, dated 2015)
Read-outs that look alike come from different tables or passages of the source.

Test system: HCV 1b replication (bicistronic genotype 1b replicon in Huh 7 cells)
Assay: HCV 1b replicon assay (1b_Huh-Luc/Neo-ET cell line, luciferase readout)
Assay type: cell-based
Conditions: Hepatitis C virus, Huh-7
Procedure: Biological activity of the compounds of the invention was determined using an HCV replicon assay. The 1b_Huh-Luc/Neo-ET cell line persistently expressing a bicistronic genotype 1b replicon in Huh 7 cells was obtained from ReBLikon GMBH. This cell line was used to test compound inhibition using luciferase enzyme activity readout as a measurement of compound inhibition of replicon levels.
On Day 1 (the day after plating), each compound was added in triplicate to the cells. Plates were incubated for 72 hours prior to running the luciferase assay. Enzyme activity was measured using a Bright-Glo Kit (cat. number E2620) manufactured by Promega Corporation. The following equation was used to generate a percent control value for each compound. % Control=(Average Compound Value/Average Control)*100
The EC50 value was determined using GraphPad Prism and the following equation: Y=Bottom+(Top-Bottom)/(1+10^((Log IC50−X)*HillSlope))
EC50 values of compounds were repeated several times in the replicon assay.

[1] = 1b_Huh-Luc/Neo-ET cell line, 72 hours, luciferase readout, read-out: EC50, concentration effective to produce a half-maximal inhibition of HCV 1b replication
[2] = class symbols, genotype 1b replicon, read-out: Inhibition of HCV genotype 1b replicon
[3] = numeric EC50, genotype 1b replicon, read-out: Inhibition of HCV genotype 1b replicon (EC50)

| Structure (SMILES) | EC50 [1] [nM] | EC50 [2] [nM] | EC50 [3] [nM] |
| --- | --- | --- | --- |
| CNC(=O)c1c(-c2ccccc2F)oc2cc3c(cc12)C(C)CCCN3S(C)(=O)=O (stereo not drawn) [Compound B33] | ≤ 10 | < 10 | – |
| CNC(=O)c1c(-c2ccc(F)cc2)oc2cc3c(cc12)[C@H](C)O[C@H](COC[C@H](O)CO)CN3S(C)(=O)=O [Compound B279] | 10 to 100 | 10 to 100 | – |
| C=C1CCCN(S(C)(=O)=O)c2cc3oc(-c4ccc(F)cc4F)c(C(=O)NC)c3cc21 [Compound B29] | 10 to 100 | – | 56.1 |
| CNC(=O)c1c(-c2ccc(F)cc2)nn2cc3c(cc12)C(C)OC(CS(C)(=O)=O)CN3S(C)(=O)=O (stereo not drawn) [Compound B247] | ≤ 10 | 10 to 100 | – |
| CNC(=O)c1c(-c2ccc(F)cc2)oc2cc3c(cc12)[C@H](C)O[C@H](COC(=O)N1CCC(N2CCCCC2)CC1)CN3S(C)(=O)=O [Compound B276] | ≤ 10 | < 10 | – |
| CNC(=O)c1c(-c2ccc(F)cc2)oc2cc3c(cc12)C(C)=CCCN3S(C)(=O)=O [Compound B6] | 10 to 100 | 10 to 100 | – |
| CNC(=O)c1c(-c2ccc(F)cc2)oc2cc3c(cc12)[C@@H](C)CCCN3S(C)(=O)=O [Compound B16] | 10 to 100 | – | 45.7 |
| CNC(=O)c1c(-c2ccc(F)cc2)oc2cc3c(cc12)[C@H](C)O[C@H](COC(=O)[C@@H](N)[C@@H](C)O)CN3S(C)(=O)=O [Compound B280] | ≤ 10 | < 10 | – |
| CNC(=O)c1c(-c2ccc(F)cc2)oc2cc3c(cc12)CCN3S(C)(=O)=O [Compound B21] | – | 100 to 1000 | – |
| CNC(=O)c1c(-c2ccc(Oc3ccc(F)cc3)cc2)oc2cc3c(cc12)[C@H](C)O[C@H](COC(=O)CN)CN3S(C)(=O)=O [Compound B254] | ≤ 10 | < 10 | – |
| CNC(=O)c1c(-c2ccc(F)cc2)oc2cc3c(cc12)[C@H](C)O[C@@H](CO)CN3S(C)(=O)=O [Compound B274] | – | 10 to 100 | – |
| CNC(=O)c1c(-c2ccccc2F)oc2cc3c(cc12)C(C)=CCCN3S(C)(=O)=O [Compound B32] | 10 to 100 | 10 to 100 | – |
| CNC(=O)c1c(-c2ccc(F)cc2)oc2cc3c(cc12)[C@H](C)O[C@H](COC)CN3S(C)(=O)=O [Compound B260] | ≤ 10 | < 10 | – |
| CNC(=O)c1c(-c2ccc(Oc3ccc(F)cc3)cc2)oc2cc3c(cc12)[C@H](C)O[C@H](COC(=O)CCC(=O)O)CN3S(C)(=O)=O [Compound B245] | ≤ 10 | < 10 | – |
| CNC(=O)c1c(-c2ccc(F)cc2)oc2cc3c(cc12)[C@H](C)O[C@H](COC(=O)CN(C)C)CN3S(C)(=O)=O [Compound B252] | ≤ 10 | < 10 | – |
| CNC(=O)c1c(-c2ccc(F)cc2)oc2cc3c(cc12)[C@H](C)O[C@H](COC(=O)C(C)(C)C)CN3S(C)(=O)=O [Compound B261] | ≤ 10 | < 10 | – |
| CNC(=O)c1c(-c2ccc(F)cc2)oc2cc3c(cc12)[C@H](C)O[C@H](COC(=O)[C@@H](N)C(C)C)CN3S(C)(=O)=O [Compound B248] | ≤ 10 | < 10 | – |
| CNC(=O)c1c(-c2ccc(F)cc2)oc2cc3c(cc12)[C@H](C)O[C@H](COP(=O)(O)O)CN3S(C)(=O)=O [Compound B255] | ≤ 10 | < 10 | – |
| CNC(=O)c1c(-c2ccc(F)cc2F)oc2cc3c(cc12)C(C)CCCN3S(C)(=O)=O (stereo not drawn) [Compound B35] | ≤ 10 | < 10 | – |
| CNC(=O)c1c(-c2ccc(Oc3ccc(F)cc3)cc2)oc2cc3c(cc12)[C@H](C)O[C@H](COC(=O)c1cccnc1)CN3S(C)(=O)=O [Compound B246] | ≤ 10 | < 10 | – |

| Structure (SMILES) | EC50 [1] [nM] | EC50 [2] [nM] | EC50 [3] [nM] |
| --- | --- | --- | --- |
| CNC(=O)c1c(-c2ccc(F)cc2)oc2cc3c(cc12)[C@H](C)O[C@H](COC(=O)[C@H](C)N)CN3S(C)(=O)=O [Compound B249] | ≤ 10 | < 10 | – |
| CNC(=O)c1c(-c2ccc(F)cc2)oc2cc3c(cc12)[C@H](C)O[C@H](COC(=O)CN)CN3S(C)(=O)=O [Compound B253] | ≤ 10 | < 10 | – |
| CN/C(=N\O)c1c(-c2ccc(F)cc2)oc2cc3c(cc12)[C@H](C)O[C@H](CS(C)(=O)=O)CN3S(C)(=O)=O [Compound B283] | – | 100 to 1000 | – |
| CC[C@H](C)[C@H](N)C(=O)OC[C@@H]1CN(S(C)(=O)=O)c2cc3oc(-c4ccc(F)cc4)c(C(=O)NC)c3cc2[C@H](C)O1 [Compound B269] | ≤ 10 | < 10 | – |
| CNC(=O)c1c(-c2ccc(F)cc2)oc2cc3c(cc12)[C@H](C)O[C@H](CO[C@@H]1CCOC1)CN3S(C)(=O)=O [Compound B286] | ≤ 10 | < 10 | – |
| C=C1CCCN(S(C)(=O)=O)c2cc3oc(-c4ccccc4F)c(C(=O)NC)c3cc21 [Compound B31] | 10 to 100 | 10 to 100 | – |
| CN/C(=N\OC)c1c(-c2ccc(F)cc2)oc2cc3c(cc12)[C@H](C)O[C@H](CS(C)(=O)=O)CN3S(C)(=O)=O [Compound B284] | – | 100 to 1000 | – |
| CNC(=O)c1c(-c2ccc(F)cc2)oc2cc3c(cc12)[C@H](C)O[C@@H](CS(C)(=O)=O)CN3S(C)(=O)=O [Compound B287] | 10 to 100 | 10 to 100 | – |
| CNC(=O)c1c(-c2ccc(F)cc2)oc2cc3c(cc12)[C@H](C)O[C@H](COC(=O)[C@@H](N)Cc1ccccc1)CN3S(C)(=O)=O [Compound B278] | ≤ 10 | < 10 | – |
| CNC(=O)c1c(-c2ccc(Oc3ccc(F)cc3)cc2)nn2cc3c(cc12)C(C)OC(CS(C)(=O)=O)CN3S(C)(=O)=O (stereo not drawn) [Compound B251] | – | 10 to 100 | – |
| CNC(=O)c1c(-c2ccc(F)cc2)oc2cc3c(cc12)[C@H](C)O[C@H](CO[C@H]1CCOC1)CN3S(C)(=O)=O [Compound B285] | ≤ 10 | < 10 | – |
| CONC(=O)c1c(-c2ccc(F)cc2)oc2cc3c(cc12)CCCCN3S(C)(=O)=O [Compound B18] | 10 to 100 | 10 to 100 | – |
| CNC(=O)c1c(-c2ccc(F)cc2)oc2cc3c(cc12)[C@H](C)O[C@H](COC(=O)[C@H](N)C(C)C)CN3S(C)(=O)=O [Compound B282] | ≤ 10 | < 10 | – |
| CNC(=O)c1c(-c2ccc(F)cc2)oc2cc3c(cc12)C1(CCCN3S(C)(=O)=O)CC1 [Compound B9] | 10 to 100 | 10 to 100 | – |
| CNC(=O)c1c(-c2ccc(F)cc2)oc2cc3c(cc12)[C@H](C)O[C@H](COC(=O)COCCOCCOCCOC)CN3S(C)(=O)=O [Compound B258] | ≤ 10 | < 10 | – |
| C=C1CCCN(S(C)(=O)=O)c2cc3oc(-c4ccc(F)cc4)c(C(=O)NC)c3cc21 [Compound B4] | 10 to 100 | 10 to 100 | – |
| CNC(=O)c1c(-c2ccc(F)cc2)oc2cc3c(cc12)[C@H](C)O[C@H](COC(=O)CCC(=O)O)CN3S(C)(=O)=O [Compound B262] | 10 to 100 | 10 to 100 | – |
| CNC(=O)c1c(-c2ccc(Oc3ccc(F)cc3)cc2)oc2cc3c(cc12)[C@H](C)O[C@H](COC)CN3S(C)(=O)=O [Compound B243] | ≤ 10 | < 10 | – |
| CNC(=O)c1c(-c2ccc(Oc3ccc(F)cc3)cc2)nn2cc3c(cc12)C(C)OC(CO)CN3S(C)(=O)=O (stereo not drawn) [Compound B250] | – | 10 to 100 | – |
